The target in assay [1] is T1, 5-hydroxytryptamine receptor 1B (Homo sapiens, UniProt P28222). Briefly: Inhibitory activity against human recombinant 5HT1B receptor co-expressed with G-protein chimera Gqo5 in HEK293 cells by FLIPR. Type of assay: functional, cell-based.
Assay [2] concerns the target T2, Adrenergic receptor alpha-1 (Homo sapiens, UniProt P35348+P25100+P35368).
T2 sequence (P35348 whole entry): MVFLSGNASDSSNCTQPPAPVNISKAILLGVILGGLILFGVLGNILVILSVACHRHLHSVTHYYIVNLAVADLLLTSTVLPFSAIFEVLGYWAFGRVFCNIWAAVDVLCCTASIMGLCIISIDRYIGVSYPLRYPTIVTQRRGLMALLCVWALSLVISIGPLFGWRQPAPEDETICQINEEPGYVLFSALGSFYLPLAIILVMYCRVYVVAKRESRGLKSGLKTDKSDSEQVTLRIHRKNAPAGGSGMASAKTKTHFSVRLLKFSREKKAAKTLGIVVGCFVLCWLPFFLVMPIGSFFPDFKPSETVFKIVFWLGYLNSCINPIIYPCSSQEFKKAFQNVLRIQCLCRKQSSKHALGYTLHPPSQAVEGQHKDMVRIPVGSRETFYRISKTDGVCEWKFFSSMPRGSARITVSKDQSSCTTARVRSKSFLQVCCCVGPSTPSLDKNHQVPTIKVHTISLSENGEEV
T2 sequence (P25100 whole entry): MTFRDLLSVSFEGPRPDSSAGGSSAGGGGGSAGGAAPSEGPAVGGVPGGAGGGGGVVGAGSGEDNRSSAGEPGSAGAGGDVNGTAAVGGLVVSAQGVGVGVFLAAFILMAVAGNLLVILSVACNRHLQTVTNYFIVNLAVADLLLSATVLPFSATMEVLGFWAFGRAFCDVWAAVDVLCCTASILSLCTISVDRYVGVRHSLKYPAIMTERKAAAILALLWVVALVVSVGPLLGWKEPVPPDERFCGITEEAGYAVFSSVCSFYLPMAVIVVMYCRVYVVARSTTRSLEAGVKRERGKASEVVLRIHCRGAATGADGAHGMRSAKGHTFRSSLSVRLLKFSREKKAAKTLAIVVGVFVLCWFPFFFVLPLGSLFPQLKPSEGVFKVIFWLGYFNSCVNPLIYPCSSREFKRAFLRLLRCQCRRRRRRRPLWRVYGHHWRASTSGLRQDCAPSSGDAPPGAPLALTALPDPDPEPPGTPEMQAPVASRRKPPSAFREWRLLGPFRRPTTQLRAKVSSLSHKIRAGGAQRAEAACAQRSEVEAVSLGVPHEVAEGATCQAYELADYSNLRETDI
T2 sequence (P35368 whole entry): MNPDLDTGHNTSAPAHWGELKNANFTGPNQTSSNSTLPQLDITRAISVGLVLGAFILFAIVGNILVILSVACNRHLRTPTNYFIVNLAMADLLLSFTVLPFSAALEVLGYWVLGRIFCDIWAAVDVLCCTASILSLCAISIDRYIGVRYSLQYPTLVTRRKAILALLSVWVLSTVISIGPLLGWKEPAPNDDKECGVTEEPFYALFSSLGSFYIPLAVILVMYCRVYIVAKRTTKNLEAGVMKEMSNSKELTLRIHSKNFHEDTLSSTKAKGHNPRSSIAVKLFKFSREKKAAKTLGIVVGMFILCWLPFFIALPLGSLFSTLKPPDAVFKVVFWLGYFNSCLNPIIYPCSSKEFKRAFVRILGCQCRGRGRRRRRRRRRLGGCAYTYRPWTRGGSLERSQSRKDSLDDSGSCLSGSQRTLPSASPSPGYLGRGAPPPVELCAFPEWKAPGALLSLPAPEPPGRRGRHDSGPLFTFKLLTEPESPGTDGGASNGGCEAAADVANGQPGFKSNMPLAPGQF
The assay can be described thus: Inhibitory activity against Adrenergic alpha-1 receptor. The class given is protein assay.

Assay [3] addresses T1, 5-hydroxytryptamine receptor 1B. The assay can be described thus: Intrinsic activity for 5HT1B receptor in FLIPR assay. The class given is functional.
For the next assay, the species on record is Rattus norvegicus. The assay can be described thus: Electrically stimulated [3H]5-HT release from rat brain cortical slices at 0.1 uM. The class given is functional, tissue-based.

T1 sequence (P28222 whole entry): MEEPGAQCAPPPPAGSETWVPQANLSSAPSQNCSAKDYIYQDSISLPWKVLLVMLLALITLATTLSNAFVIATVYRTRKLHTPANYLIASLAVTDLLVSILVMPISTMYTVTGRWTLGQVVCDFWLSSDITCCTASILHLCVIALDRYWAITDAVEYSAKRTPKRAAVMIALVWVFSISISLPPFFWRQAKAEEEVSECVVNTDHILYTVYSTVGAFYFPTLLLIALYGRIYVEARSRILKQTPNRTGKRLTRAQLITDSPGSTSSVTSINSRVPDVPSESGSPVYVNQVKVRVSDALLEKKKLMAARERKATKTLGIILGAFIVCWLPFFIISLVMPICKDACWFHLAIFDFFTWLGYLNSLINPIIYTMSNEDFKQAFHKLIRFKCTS

Turning to `CN1CCc2c(sc3ncn(CCN4CCN(c5cncc6ccccc56)CC4)c(=O)c23)C1`, the IC50 in assay [1] was determined as 35 nM. For the same molecule, the results for the Ki in assay [1] and in assay [2] were 2.5 nM and 13.7 nM, respectively. In assay [3], this molecule gave an Emax of 7%. Also, the Activity entry in the assay listed under Rattus norvegicus is “Dose-dependent effect”.

One may read the IC50 as the midpoint of a concentration-inhibition curve. One may read the Ki as the equilibrium dissociation constant of an inhibitor or competing ligand from its target. A word on the Emax: it is the greatest response seen or fitted, relative to the assay's reference.

The values above are taken from ChEMBL document CHEMBL1141234, “Synthesis and SAR of highly potent dual 5-HT1A and 5-HT1B antagonists as potential antidepressant drugs” (Bioorg Med Chem Lett, 2005).
